Reference: EP4691482A1, “LONG-ACTING CALCITONIN ANALOG” (Chengdu Aoda Biotechnology Co., Ltd., priority 2023, dated 2024)

These molecules were tested against T1, calcitonin receptors (CTR) (Homo sapiens, UniProt P30988) (assay: cAMP determination (HTRF, cAMP Dynamic 2 Kit) in cAMP Hunter HEK293-CT-R Gs cell line). Details: HEK293 cell line stably expressing CT-R; intracellular cAMP, HTRF.
T1 construct: expressed in transfected cells; host or cells: cAMP Hunter HEK293-CT-R Gs cell line (HEK293, stably transfected)
T1 sequence (P30988 25-474): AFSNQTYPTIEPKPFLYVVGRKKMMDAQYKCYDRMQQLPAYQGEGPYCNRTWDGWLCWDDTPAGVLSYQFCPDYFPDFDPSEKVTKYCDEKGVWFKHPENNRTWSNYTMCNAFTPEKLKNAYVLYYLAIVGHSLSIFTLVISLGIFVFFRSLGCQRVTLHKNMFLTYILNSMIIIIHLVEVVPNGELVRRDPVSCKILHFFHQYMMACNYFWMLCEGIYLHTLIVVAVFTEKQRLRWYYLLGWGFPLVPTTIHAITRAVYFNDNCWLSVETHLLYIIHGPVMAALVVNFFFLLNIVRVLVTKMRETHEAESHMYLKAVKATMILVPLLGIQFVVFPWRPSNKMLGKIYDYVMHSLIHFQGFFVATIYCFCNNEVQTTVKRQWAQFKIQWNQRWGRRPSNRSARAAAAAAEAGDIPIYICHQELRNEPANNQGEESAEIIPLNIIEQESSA
Format: cell-based
Excerpt: Upon activation by a ligand, Gas-coupled GPCRs can upregulate intracellular cAMP level, and cAMP, as a second messenger, can mediate a series of cellular responses. The cAMP Hunter HEK293-CT-R Gs cell line, which overexpresses Gas-coupled calcitonin receptors (CTR), was used. The binding of calcitonin (or an analog thereof) to the overexpressed CTR upregulates intracellular cAMP level. The amount of intracellular cAMP produced after activation by the calcitonin (or an analog thereof) was detected using a cAMP Dynamic 2 Kit to evaluate the biological activity of the calcitonin (or an analog thereof). HEK293 cell line stably expressing CT-R was used. Stably transfected cells were stimulated with various concentrations of agonists. The time-resolved fluorescence resonance energy signal from the cells after stimulation with different doses was measured using HTRF technology, from which the biological activity of the agonist was subsequently calculated.
`CC(C)C[C@H](NC(=O)[C@H](CCCCN)NC(=O)CNC(=O)[C@H](CC(C)C)NC(=O)[C@@H](NC(=O)[C@@H]1CSSC[C@H](N)C(=O)N[C@@H](CO)C(=O)N[C@@H](CC(N)=O)C(=O)N[C@@H](CC(C)C)C(=O)N[C@@H](CO)C(=O)N[C@@H]([C@@H](C)O)C(=O)N1)C(C)C)C(=O)N[C@@H](CO)C(=O)N[C@@H](CCC(N)=O)C(=O)N[C@@H](CCC(=O)O)C(=O)N[C@@H](CC(C)C)C(=O)N[C@@H](Cc1c[nH]cn1)C(=O)N[C@@H](CCCCNC(=O)CNC(=O)CNC(=O)CC[C@H](NC(=O)CCCCCCCCCCCCCCCCCCC(=O)O)C(=O)O)C(=O)N[C@@H](CC(C)C)C(=O)N[C@@H](CCC(N)=O)C(=O)N[C@H](C(=O)N[C@@H](Cc1ccc(O)cc1)C(=O)N1CCC[C@H]1C(=O)N[C@@H](CCCNC(=N)N)C(=O)N[C@H](C(=O)N[C@@H](CC(N)=O)C(=O)N[C@H](C(=O)NCC(=O)N[C@@H](CO)C(=O)NCC(=O)N[C@H](C(=O)N1CCC[C@H]1C(N)=O)[C@@H](C)O)[C@@H](C)O)[C@@H](C)O)[C@@H](C)O` [Compound 11] gave an EC50 of 4.3 pM.
For `CC(C)C[C@H](NC(=O)[C@H](CCCCN)NC(=O)CNC(=O)[C@H](CC(C)C)NC(=O)[C@@H](NC(=O)[C@@H]1CSSC[C@H](N)C(=O)N[C@@H](CO)C(=O)N[C@@H](CC(N)=O)C(=O)N[C@@H](CC(C)C)C(=O)N[C@@H](CO)C(=O)N[C@@H]([C@@H](C)O)C(=O)N1)C(C)C)C(=O)N[C@@H](CO)C(=O)N[C@@H](CCC(N)=O)C(=O)N[C@@H](CCC(=O)O)C(=O)N[C@@H](CC(C)C)C(=O)N[C@@H](Cc1c[nH]cn1)C(=O)N[C@@H](CCCCNC(=O)CNC(=O)[C@H](CO)NC(=O)CNC(=O)[C@H](CO)NC(=O)CC[C@H](NC(=O)CCCCCCCCCCCCCCCCCCC(=O)O)C(=O)O)C(=O)N[C@@H](CC(C)C)C(=O)N[C@@H](CCC(N)=O)C(=O)N[C@H](C(=O)N[C@@H](Cc1ccc(O)cc1)C(=O)N1CCC[C@H]1C(=O)N[C@@H](CCCNC(=N)N)C(=O)N[C@H](C(=O)N[C@@H](CC(N)=O)C(=O)N[C@H](C(=O)NCC(=O)N[C@@H](CO)C(=O)NCC(=O)N[C@H](C(=O)N1CCC[C@H]1C(N)=O)[C@@H](C)O)[C@@H](C)O)[C@@H](C)O)[C@@H](C)O` [Compound 7], the EC50 was 4.4 pM.
In the case of `CC(C)C[C@H](NC(=O)[C@H](CCCCN)NC(=O)CNC(=O)[C@H](CC(C)C)NC(=O)[C@@H](NC(=O)[C@@H]1CSSC[C@H](N)C(=O)N[C@@H](CO)C(=O)N[C@@H](CC(N)=O)C(=O)N[C@@H](CC(C)C)C(=O)N[C@@H](CO)C(=O)N[C@@H]([C@@H](C)O)C(=O)N1)C(C)C)C(=O)N[C@@H](CO)C(=O)N[C@@H](CCC(N)=O)C(=O)N[C@@H](CCC(=O)O)C(=O)N[C@@H](CC(C)C)C(=O)N[C@@H](Cc1c[nH]cn1)C(=O)N[C@@H](CCCCNC(=O)COCCOCCNC(=O)COCCOCCNC(=O)CC[C@H](NC(=O)CCCCCCCCCCCCCCCCCCC(=O)O)C(=O)O)C(=O)N[C@@H](CC(C)C)C(=O)N[C@@H](CCC(N)=O)C(=O)N[C@H](C(=O)N[C@@H](Cc1ccc(O)cc1)C(=O)N1CCC[C@H]1C(=O)N[C@@H](CCCNC(=N)N)C(=O)N[C@H](C(=O)N[C@@H](CC(N)=O)C(=O)N[C@H](C(=O)NCC(=O)N[C@@H](CO)C(=O)NCC(=O)N[C@H](C(=O)N1CCC[C@H]1C(N)=O)[C@@H](C)O)[C@@H](C)O)[C@@H](C)O)[C@@H](C)O` [Compound 16, Cys-Ser-Asn-Leu-Ser-Thr-Cys-Val-Leu-Gly-Lys-Leu-Ser-Gln-Glu-Leu-His-Lys(AEEA-AEEA-γGlu-eicosanedioic acid)-Leu-Gln-Thr-Tyr-Pro-Arg-Thr-Asn-Thr-Gly-Ser-Gly-Thr-Pro-NH2], the EC50 is reported as 2.9 pM.
Work on `CC(C)C[C@H](NC(=O)[C@H](CCCCN)NC(=O)CNC(=O)[C@H](CC(C)C)NC(=O)[C@@H](NC(=O)[C@@H]1CSSC[C@H](N)C(=O)N[C@@H](CO)C(=O)N[C@@H](CC(N)=O)C(=O)N[C@@H](CC(C)C)C(=O)N[C@@H](CO)C(=O)N[C@@H]([C@@H](C)O)C(=O)N1)C(C)C)C(=O)N[C@@H](CO)C(=O)N[C@@H](CCC(N)=O)C(=O)N[C@@H](CCC(=O)O)C(=O)N[C@@H](CC(C)C)C(=O)N[C@@H](Cc1c[nH]cn1)C(=O)N[C@@H](CCCCNC(=O)COCCOCCNC(=O)COCCOCCNC(=O)CC[C@H](NC(=O)CCCCCCCCCCCCCCCCCCCCC(=O)O)C(=O)O)C(=O)N[C@@H](CC(C)C)C(=O)N[C@@H](CCC(N)=O)C(=O)N[C@H](C(=O)N[C@@H](Cc1ccc(O)cc1)C(=O)N1CCC[C@H]1C(=O)N[C@@H](CCCNC(=N)N)C(=O)N[C@H](C(=O)N[C@@H](CC(N)=O)C(=O)N[C@H](C(=O)NCC(=O)N[C@@H](CO)C(=O)NCC(=O)N[C@H](C(=O)N1CCC[C@H]1C(N)=O)[C@@H](C)O)[C@@H](C)O)[C@@H](C)O)[C@@H](C)O` [Compound 21, Cys-Ser-Asn-Leu-Ser-Thr-Cys-Val-Leu-Gly-Lys-Leu-Ser-Gln-Glu-Leu-His-Lys(AEEA-AEEA-γGlu-docosanedioic acid)-Leu-Gln-Thr-Tyr-Pro -Arg-Thr-Asn-Thr-Gly-Ser-Gly-Thr-Pro-NH2] yielded an EC50 of 3.5 pM.

Same assay, conditions: relative to Salmon Calcitonin = 100.0; HEK293 CT-R cAMP
For `CC(C)C[C@H](NC(=O)[C@H](CCCCN)NC(=O)CNC(=O)[C@H](CC(C)C)NC(=O)[C@@H](NC(=O)[C@@H]1CSSC[C@H](N)C(=O)N[C@@H](CO)C(=O)N[C@@H](CC(N)=O)C(=O)N[C@@H](CC(C)C)C(=O)N[C@@H](CO)C(=O)N[C@@H]([C@@H](C)O)C(=O)N1)C(C)C)C(=O)N[C@@H](CO)C(=O)N[C@@H](CCC(N)=O)C(=O)N[C@@H](CCC(=O)O)C(=O)N[C@@H](CC(C)C)C(=O)N[C@@H](Cc1c[nH]cn1)C(=O)N[C@@H](CCCCNC(=O)COCCOCCNC(=O)CC[C@H](NC(=O)CCCCCCCCCCCCCCCCCCC(=O)O)C(=O)O)C(=O)N[C@@H](CC(C)C)C(=O)N[C@@H](CCC(N)=O)C(=O)N[C@H](C(=O)N[C@@H](Cc1ccc(O)cc1)C(=O)N1CCC[C@H]1C(=O)N[C@@H](CCCNC(=N)N)C(=O)N[C@H](C(=O)N[C@@H](CC(N)=O)C(=O)N[C@H](C(=O)NCC(=O)N[C@@H](CO)C(=O)NCC(=O)N[C@H](C(=O)N1CCC[C@H]1C(N)=O)[C@@H](C)O)[C@@H](C)O)[C@@H](C)O)[C@@H](C)O` [Compound 2, Cys-Ser-Asn-Leu-Ser-Thr-Cys-Val-Leu-Gly-Lys-Leu-Ser-Gln-Glu-Leu-His-Lys(PEG2CH2CO-γGlu-eicosanedioic acid)-Leu-Gln-Thr-Tyr-Pro-Arg-Thr-Asn-Thr-Gly-Ser-Gly-Thr-Pro-NH2], the “Relative Activity%” value was 231.7%.
With `CC(C)C[C@H](NC(=O)[C@H](CCCCN)NC(=O)CNC(=O)[C@H](CC(C)C)NC(=O)[C@@H](NC(=O)[C@@H]1CSSC[C@H](N)C(=O)N[C@@H](CO)C(=O)N[C@@H](CC(N)=O)C(=O)N[C@@H](CC(C)C)C(=O)N[C@@H](CO)C(=O)N[C@@H]([C@@H](C)O)C(=O)N1)C(C)C)C(=O)N[C@@H](CO)C(=O)N[C@@H](CCC(N)=O)C(=O)N[C@@H](CCC(=O)O)C(=O)N[C@@H](CC(C)C)C(=O)N[C@@H](Cc1c[nH]cn1)C(=O)N[C@@H](CCCCNC(=O)COCCOCCOCCNC(=O)CC[C@H](NC(=O)CCCCCCCCCCCCCCCCCCCCC(=O)O)C(=O)O)C(=O)N[C@@H](CC(C)C)C(=O)N[C@@H](CCC(N)=O)C(=O)N[C@H](C(=O)N[C@@H](Cc1ccc(O)cc1)C(=O)N1CCC[C@H]1C(=O)N[C@@H](CCCNC(=N)N)C(=O)N[C@H](C(=O)N[C@@H](CC(N)=O)C(=O)N[C@H](C(=O)NCC(=O)N[C@@H](CO)C(=O)NCC(=O)N[C@H](C(=O)N1CCC[C@H]1C(N)=O)[C@@H](C)O)[C@@H](C)O)[C@@H](C)O)[C@@H](C)O` [Compound 20, Cys-Ser-Asn-Leu-Ser-Thr-Cys-Val-Leu-Gly-Lys-Leu-Ser-Gln-Glu-Leu-His-Lys(PEG3CH2CO-γGlu-docosanedioic acid)-Leu-Gln-Thr-Tyr-Pro-Arg-Thr-Asn-Thr-Gly-Ser-Gly-Thr-Pro-NH2] the “Relative Activity%” value was 296.9%.
